Results published in patent US10934300B2, “Atropisomerism for enhanced kinase inhibitor selectivity” (San Diego State University Foundation, priority 2017, dated 2021).
Where “and” joins values, the source holds several entries; their conditions need not be identical. Equal entries are not always repeated. Where two headings read alike, the source gives them in different places.

What was measured:
Ret kinase = Ret kinase (Homo sapiens, UniProt P07949); assay: Z'-LYTE kinase inhibition, Ret; conditions: for IC50: Ret IC50 (nM), Table 4; for IC50 of compound Kinase/IC50 of compound Yes: Ret relative to Yes
Ret kinase, sequence (P07949 29-1114): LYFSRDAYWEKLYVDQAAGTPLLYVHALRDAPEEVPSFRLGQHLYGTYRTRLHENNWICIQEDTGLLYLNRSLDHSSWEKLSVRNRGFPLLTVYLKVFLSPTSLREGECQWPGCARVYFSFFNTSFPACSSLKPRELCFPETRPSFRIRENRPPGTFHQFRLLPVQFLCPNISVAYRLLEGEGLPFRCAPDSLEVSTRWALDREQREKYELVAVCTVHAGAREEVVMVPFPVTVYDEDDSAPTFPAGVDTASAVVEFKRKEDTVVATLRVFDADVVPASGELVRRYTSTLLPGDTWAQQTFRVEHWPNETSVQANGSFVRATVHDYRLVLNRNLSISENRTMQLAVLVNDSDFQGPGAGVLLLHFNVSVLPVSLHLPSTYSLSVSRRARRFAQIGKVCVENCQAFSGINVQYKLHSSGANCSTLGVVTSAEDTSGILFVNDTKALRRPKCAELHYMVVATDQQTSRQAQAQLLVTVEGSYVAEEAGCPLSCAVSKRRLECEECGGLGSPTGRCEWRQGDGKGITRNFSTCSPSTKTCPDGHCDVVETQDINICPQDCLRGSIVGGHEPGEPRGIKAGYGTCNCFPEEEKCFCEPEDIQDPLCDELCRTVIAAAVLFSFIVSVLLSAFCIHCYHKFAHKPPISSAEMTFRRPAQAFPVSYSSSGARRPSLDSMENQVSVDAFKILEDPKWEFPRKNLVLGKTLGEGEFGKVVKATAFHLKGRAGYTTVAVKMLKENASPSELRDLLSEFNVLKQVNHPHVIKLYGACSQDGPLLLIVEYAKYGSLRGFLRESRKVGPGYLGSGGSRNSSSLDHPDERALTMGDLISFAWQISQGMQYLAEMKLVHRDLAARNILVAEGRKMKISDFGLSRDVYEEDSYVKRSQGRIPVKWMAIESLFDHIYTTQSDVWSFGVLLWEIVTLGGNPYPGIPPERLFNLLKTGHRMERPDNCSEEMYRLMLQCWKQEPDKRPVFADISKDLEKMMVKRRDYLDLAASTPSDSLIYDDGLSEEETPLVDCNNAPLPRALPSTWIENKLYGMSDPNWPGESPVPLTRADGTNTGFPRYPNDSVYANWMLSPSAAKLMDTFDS

Src kinase = Src kinase (Homo sapiens, UniProt P12931); assay: Z'-LYTE kinase inhibition, Src; conditions: for IC50: Table 4; for IC50 of compound Kinase/IC50 of compound Yes: Src relative to Yes
Src kinase, sequence (P12931 whole entry): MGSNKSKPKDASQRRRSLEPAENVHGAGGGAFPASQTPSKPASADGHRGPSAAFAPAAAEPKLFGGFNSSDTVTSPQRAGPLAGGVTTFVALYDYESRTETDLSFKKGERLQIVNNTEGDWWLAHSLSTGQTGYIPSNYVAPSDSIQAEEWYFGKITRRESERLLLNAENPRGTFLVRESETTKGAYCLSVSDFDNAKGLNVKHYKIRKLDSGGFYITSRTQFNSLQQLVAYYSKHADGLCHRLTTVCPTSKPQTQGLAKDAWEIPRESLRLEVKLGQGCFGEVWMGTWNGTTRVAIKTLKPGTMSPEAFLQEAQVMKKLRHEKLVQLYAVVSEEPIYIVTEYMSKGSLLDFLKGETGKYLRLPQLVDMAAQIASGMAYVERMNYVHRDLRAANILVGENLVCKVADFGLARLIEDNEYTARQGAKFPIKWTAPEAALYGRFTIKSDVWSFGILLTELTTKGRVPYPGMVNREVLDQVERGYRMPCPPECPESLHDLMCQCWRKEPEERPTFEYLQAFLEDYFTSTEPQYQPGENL

[1] = tested on: panel of tyrosine kinases; assay: Kinase inhibitor profiling across a panel of tyrosine kinases, selectivity score; type: biochemical
Experimental: To analyze each analog's selectivity across the panel, selectivity scores were used (Davis et al., Nat. Biotechnol. 2011, 29, 1046-51), which are simply the number of kinases inhibited above a certain threshold divided by the number of kinases evaluated. […] For example at 1000 nM 2e-(R) yielded an S(40%) of 0.11 while 2e-(S) gave an S(40%) of 0.16. […] Differences in selectivity between 2e-(R) and 2e-(S) at 5000 nM (4.5 times the IC50 of 2e-(S) toward Src) and for 5 at 1000 nM (6.25 times the IC50 of 5 toward Src) can be viewed graphically across tyrosine kinases (FIG. 3). Importantly, similar trends were also observed across each of the atropisomeric series tested.
All samples were sent out to Life Technologies to obtain kinase inhibition data. A brief description of the assays and analyses are included below.
Assay Theory (SelectScreen® Kinase Profiling Services (Life Technologies, Madison, Wis. USA). The Z′-LYTE® biochemical assay employs a fluorescence-based, coupled-enzyme format and is based on the differential sensitivity of phosphorylated and non-phosphorylated peptides to proteolytic cleavage. The peptide substrate is labeled with two fluorophores—one at each end—that make up a FRET pair.
In the primary reaction, the kinase transfers the gamma-phosphate of ATP to a single tyrosine, serine or threonine residue in a synthetic FRET-peptide. In the secondary reaction, a site-specific protease recognizes and cleaves non-phosphorylated FRET-peptides. Phosphorylation of FRET-peptides suppresses cleavage by the Development Reagent. Cleavage disrupts FRET between the donor (i.e., coumarin) and acceptor (i.e., fluorescein) fluorophores on the FRET-peptide, whereas uncleaved, phosphorylated FRET-peptides maintain FRET. A ratiometric method, which calculates the ratio (the Emission Ratio) of donor emission to acceptor emission after excitation of the donor fluorophore at 400 nm, is used to quantitate reaction progress, as shown in the equation below: […]
A significant benefit of this ratiometric method for quantitating reaction progress is the elimination of well-to-well variations in FRET-peptide concentration and signal intensities. […] Both cleaved and uncleaved FRET-peptides contribute to the fluorescence signals and therefore to the Emission Ratio. The extent of phosphorylation of the FRET-peptide can be calculated from the Emission Ratio. The Emission Ratio will remain low 1f the FRET-peptide is phosphorylated (i.e., no kinase inhibition) and will be high if the FRET-peptide is non-phosphorylated (i.e., kinase inhibition).
Both cleaved and uncleaved FRET-peptides contribute to the fluorescence signals and therefore to the Emission Ratio. The extent of phosphorylation of the FRET-peptide can be calculated from the Emission Ratio. The Emission Ratio will remain low if the FRET-peptide is phosphorylated (i.e., no kinase inhibition) and will be high if the FRET-peptide is non-phosphorylated (i.e., kinase inhibition).

Abl = Abl (Homo sapiens, UniProt P00519); assay: Z'-LYTE kinase inhibition, Abl; conditions: for IC50 of compound Kinase/IC50 of compound Yes: Abl relative to Yes
Abl, sequence (P00519 whole entry): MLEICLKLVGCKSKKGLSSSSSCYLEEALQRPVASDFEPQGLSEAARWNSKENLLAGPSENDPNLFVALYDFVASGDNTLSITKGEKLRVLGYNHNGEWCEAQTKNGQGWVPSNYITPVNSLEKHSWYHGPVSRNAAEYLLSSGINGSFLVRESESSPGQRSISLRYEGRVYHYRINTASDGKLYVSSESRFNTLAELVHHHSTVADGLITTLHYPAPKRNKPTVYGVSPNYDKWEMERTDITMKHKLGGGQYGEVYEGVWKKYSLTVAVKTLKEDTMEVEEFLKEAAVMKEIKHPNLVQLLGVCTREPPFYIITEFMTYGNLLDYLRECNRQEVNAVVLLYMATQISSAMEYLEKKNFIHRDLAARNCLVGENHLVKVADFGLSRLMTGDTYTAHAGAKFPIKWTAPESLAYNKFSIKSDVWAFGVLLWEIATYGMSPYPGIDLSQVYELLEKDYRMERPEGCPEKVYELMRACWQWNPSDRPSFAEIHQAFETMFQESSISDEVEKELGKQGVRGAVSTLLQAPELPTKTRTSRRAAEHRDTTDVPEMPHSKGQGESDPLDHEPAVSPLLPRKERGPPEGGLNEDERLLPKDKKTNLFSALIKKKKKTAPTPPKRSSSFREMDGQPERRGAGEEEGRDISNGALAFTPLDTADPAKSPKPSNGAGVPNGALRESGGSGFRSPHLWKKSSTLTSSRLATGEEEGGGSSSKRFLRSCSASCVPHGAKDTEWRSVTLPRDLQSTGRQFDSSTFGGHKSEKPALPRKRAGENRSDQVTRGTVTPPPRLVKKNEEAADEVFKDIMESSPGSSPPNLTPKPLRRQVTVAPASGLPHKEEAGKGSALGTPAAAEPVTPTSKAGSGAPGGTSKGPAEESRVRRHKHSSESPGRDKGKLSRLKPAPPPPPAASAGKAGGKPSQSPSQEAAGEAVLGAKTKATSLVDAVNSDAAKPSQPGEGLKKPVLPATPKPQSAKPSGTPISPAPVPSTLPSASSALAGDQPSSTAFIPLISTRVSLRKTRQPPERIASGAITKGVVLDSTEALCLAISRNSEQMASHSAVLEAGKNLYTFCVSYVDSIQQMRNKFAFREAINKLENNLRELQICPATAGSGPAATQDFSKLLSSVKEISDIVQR

Yes = Yes (Homo sapiens, UniProt P07947); assay: Z'-LYTE kinase inhibition, Yes; conditions: for IC50 of compound Kinase/IC50 of compound Yes: Yes relative to Yes
Yes, sequence (P07947 whole entry): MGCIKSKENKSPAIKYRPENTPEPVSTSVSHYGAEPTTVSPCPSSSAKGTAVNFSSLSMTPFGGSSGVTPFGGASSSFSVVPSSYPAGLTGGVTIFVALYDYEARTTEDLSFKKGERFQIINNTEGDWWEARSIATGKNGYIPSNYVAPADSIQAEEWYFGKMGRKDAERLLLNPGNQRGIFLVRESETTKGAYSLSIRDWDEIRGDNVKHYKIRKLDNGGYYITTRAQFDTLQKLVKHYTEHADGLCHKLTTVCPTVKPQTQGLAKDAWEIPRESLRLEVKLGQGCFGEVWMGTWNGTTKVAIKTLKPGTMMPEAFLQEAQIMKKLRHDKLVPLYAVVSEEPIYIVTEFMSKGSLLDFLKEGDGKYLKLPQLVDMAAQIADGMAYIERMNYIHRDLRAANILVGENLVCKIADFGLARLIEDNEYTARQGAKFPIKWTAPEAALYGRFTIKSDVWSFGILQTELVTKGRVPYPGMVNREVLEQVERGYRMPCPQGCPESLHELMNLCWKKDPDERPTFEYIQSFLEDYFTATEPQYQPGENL

EGFR = EGFR (Homo sapiens, UniProt P00533); assay: Z'-LYTE kinase inhibition, EGFR; conditions: EGFR relative to Yes
EGFR, sequence (P00533 25-1210): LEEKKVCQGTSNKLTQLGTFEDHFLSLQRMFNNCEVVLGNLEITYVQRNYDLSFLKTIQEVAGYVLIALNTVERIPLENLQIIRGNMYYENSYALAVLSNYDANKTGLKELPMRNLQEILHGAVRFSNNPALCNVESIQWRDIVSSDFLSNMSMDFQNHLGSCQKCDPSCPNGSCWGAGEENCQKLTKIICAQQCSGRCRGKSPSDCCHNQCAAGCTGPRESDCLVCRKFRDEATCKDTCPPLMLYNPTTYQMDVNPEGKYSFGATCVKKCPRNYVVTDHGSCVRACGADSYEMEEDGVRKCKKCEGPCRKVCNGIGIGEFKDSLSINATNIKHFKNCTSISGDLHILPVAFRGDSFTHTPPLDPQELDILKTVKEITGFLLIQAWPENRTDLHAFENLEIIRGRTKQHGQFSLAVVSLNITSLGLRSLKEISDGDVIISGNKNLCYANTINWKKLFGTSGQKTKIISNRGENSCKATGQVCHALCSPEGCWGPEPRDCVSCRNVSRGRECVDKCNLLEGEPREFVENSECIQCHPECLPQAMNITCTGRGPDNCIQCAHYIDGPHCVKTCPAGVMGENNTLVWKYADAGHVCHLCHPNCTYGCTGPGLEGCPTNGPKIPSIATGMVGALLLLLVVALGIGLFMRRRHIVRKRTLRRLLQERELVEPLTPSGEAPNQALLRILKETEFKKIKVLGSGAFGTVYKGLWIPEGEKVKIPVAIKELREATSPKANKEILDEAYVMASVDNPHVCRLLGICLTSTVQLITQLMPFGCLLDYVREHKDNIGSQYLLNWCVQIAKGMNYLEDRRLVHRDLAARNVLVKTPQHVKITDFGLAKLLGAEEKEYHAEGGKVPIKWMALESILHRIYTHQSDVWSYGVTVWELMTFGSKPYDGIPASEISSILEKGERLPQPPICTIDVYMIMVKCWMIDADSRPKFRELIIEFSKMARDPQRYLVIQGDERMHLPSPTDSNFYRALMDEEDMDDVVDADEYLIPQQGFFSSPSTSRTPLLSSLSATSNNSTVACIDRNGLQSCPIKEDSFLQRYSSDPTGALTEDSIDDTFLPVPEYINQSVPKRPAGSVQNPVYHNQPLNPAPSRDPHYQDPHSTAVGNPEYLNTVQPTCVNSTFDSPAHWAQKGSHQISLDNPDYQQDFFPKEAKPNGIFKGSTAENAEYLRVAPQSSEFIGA

[2] = Experimental measurement of the barriers to rotation (racemization followed by chiral HPLC); type: physicochemical; conditions: for kobs: observed rate constant of racemization in ethanol at the heating temperature (not given), in s^-1
Experimental: Enantiomerically enriched atropisomeric pyrrolopyrimidine analogues were isolated via chiral HPLC (Daicel Chiralpak IA PN:80335, 3 mL/min, 80:20 or 50:50 hexanes:ethanol, 25° C.) and evaporated in vacuo. The enantiomerically enriched analogues were then dissolved in ethanol and placed in a sealed 2-dram vial and heated under constant temperature on an aluminum block. At each time point, an aliquot of the mixture was removed and quenched in an HPLC vial containing ice cold 80:20 hexanes:ethanol. Each sample was then injected into the chiral HPLC system (Daicel Chiralpak IA PN:80325, 1 mL/min, 80:20 or 50:50 hexanes:ethanol, 25° C.) and enantiomeric excess (ee) measured. The timepoint and enantiomeric excess (ee) data was then plotted in order to determine an observed rate constant, kobs, at the corresponding temperature. The barrier to rotation was then calculated using the relationship of kracemization=2*kenantiomenzation and then substituted into the Gibbs Free Energy Equation:
[formula] where h=Planck Constant, kb=Boltzmann Constant, T=Temp. (K), R=Gas Constant.

Row | SMILES | IC50 (Ret kinase) | IC50 (Src kinase; Src IC50 (nM)) | further results
1 | COc1ccc(C)c(-c2c(Cl)n(C(C)(C)C)c3ncnc(N)c23)c1 (atropisomer, axis not shown; (Ra)) [(Ra)-1] | 1580 nM | 4550 nM | –
2 | COc1ccc(-c2c(Cl)n(C(C)(C)C)c3ncnc(N)c23)c(C)c1 (atropisomer, axis not shown; (Ra)) [(Ra)-2] | 1870 nM | – | IC50 (Src kinase; read-out: Src IC50): > 10000 nM
3 | COc1ccc(-c2c(C)n(C(C)(C)C)c3ncnc(N)c23)c(C)c1 (atropisomer, axis not shown; (Ra)) [(Ra)-7] | 450 nM | 3320 nM | –
4 | Cc1c(-c2cccc3ccccc23)c2c(N)ncnc2n1C(C)(C)C (atropisomer, axis not shown; (Ra)) [(Ra)-10] | 282 nM | 5570 nM | –
5 | Cc1c(-c2cccc3c2CCCC3)c2c(N)ncnc2n1C(C)(C)C (atropisomer, axis not shown; (Ra)) [(Ra)-13] | > 10000 nM | > 10000 nM | –
6 | COc1ccc(C)c(-c2c(Cl)n(C(C)(C)C)c3ncnc(N)c23)c1 (atropisomer, axis not shown; (Sa)) [(Sa)-1] | 2240 nM | 4090 nM | –
7 | COc1ccc(-c2c(Cl)n(C(C)(C)C)c3ncnc(N)c23)c(C)c1 (atropisomer, axis not shown; (Sa)) [(Sa)-2] | 3000 nM | > 10000 nM | –
8 | COc1ccc(-c2c(C)n(C(C)(C)C)c3ncnc(N)c23)c(C)c1 (atropisomer, axis not shown; (Sa)) [(Sa)-7] | 918 nM | 4750 nM | –
9 | Cc1ccc(-c2c(C)n(C(C)C)c3ncnc(N)c23)c2ccccc12 (atropisomer, axis not shown; (Sa)) [(Sa)-11] | 2860 nM | 4560 nM | –
10 | COc1ccc(Cl)c(-c2c(Cl)n(C(C)(C)C)c3ncnc(N)c23)c1 (single isomer, unassigned) [2e-(R), 7-(tert-butyl)-6-chloro-5-(2-chloro-5-methoxyphenyl)-7H-pyrrolo[2,3-d]pyrimidin-4-amine] | – | – | S(40%): number of kinases inhibited greater than 40% divided by number of kinases tested (including Src) ([1]; 1000 nM): 0.11; S(40%): number of kinases inhibited greater than 40% divided by number of kinases tested (including Src) ([1]; 5000 nM): 0.44; Inhibited % (n/18) of tyrosine kinases ([1]; share of the 18 tyrosine kinases inhibited, concentration not printed in Table 3): (R): Inhibited 11% (2/18); IC50 (Abl): ≥ 10 µM; IC50 of compound Kinase/IC50 of compound Yes (Abl): 10.0; IC50 of compound Kinase/IC50 of compound Yes (Ret kinase): 2.07; augmentation/increase of 5's inherent selectivity (Ret kinase; Ret versus Abl and Src): 4 fold; IC50 of compound Kinase/IC50 of compound Yes (Yes): 1; IC50 of compound Kinase/IC50 of compound Yes (Src kinase): 6.22; IC50 of compound Kinase/IC50 of compound Yes (EGFR): >10.0
11 | COc1cc(-c2c(Cl)n(C(C)(C)C)c3ncnc(N)c23)c(Cl)cc1C (single isomer, unassigned) [(Ra)-3] | 7070 nM | > 10000 nM | –
12 | COc1ccc(Cl)c(-c2c(C)n(C(C)C)c3ncnc(N)c23)c1 (single isomer, unassigned) [(Ra)-4] | 699 nM | 1330 nM | –
13 | COc1ccc(C)c(-c2c(C)n(C(C)(C)C)c3ncnc(N)c23)c1 (single isomer, unassigned) [(Ra)-5] | 731 nM | 6370 nM | –
14 | COc1ccc(Cl)c(-c2c(Br)n(C(C)(C)C)c3ncnc(N)c23)c1 (single isomer, unassigned) [(Ra)-6] | 1500 nM | – | –
15 | COc1ccc(-c2c(CN)n(C(C)(C)C)c3ncnc(N)c23)c(C)c1 (single isomer, unassigned) [(Ra)-8] | 773 nM | 5290 nM | –
16 | Cc1c(-c2cccc3ccccc23)c2c(N)ncnc2n1C(C)C (single isomer, unassigned) [(Ra)-9] | 34 nM | 1370 nM | –
17 | Cc1c(-c2cncc3ccccc23)c2c(N)ncnc2n1C(C)(C)C (single isomer, unassigned) [(Ra)-12] | 282 nM | 7450 nM | –
18 | COc1cc(-c2c(Cl)n(C(C)(C)C)c3ncnc(N)c23)c(Cl)cc1C (single isomer, unassigned) [(Sa)-3] | 4810 nM | 918 nM | –
19 | COc1ccc(Cl)c(-c2c(C)n(C(C)C)c3ncnc(N)c23)c1 (single isomer, unassigned) [(Sa)-4] | 2270 nM | 406 nM | –
20 | COc1ccc(C)c(-c2c(C)n(C(C)(C)C)c3ncnc(N)c23)c1 (single isomer, unassigned) [(Sa)-5] | 2500 nM | 4100 nM | –
21 | COc1ccc(Cl)c(-c2c(Br)n(C(C)(C)C)c3ncnc(N)c23)c1 (single isomer, unassigned) [(Sa)-6] | 8000 nM | – | –
22 | COc1ccc(-c2c(CN)n(C(C)(C)C)c3ncnc(N)c23)c(C)c1 (single isomer, unassigned) [(Sa)-8] | 9070 nM | > 10000 nM | –
23 | Cc1c(-c2cccc3ccccc23)c2c(N)ncnc2n1C(C)C (single isomer, unassigned) [(Sa)-9] | 8810 nM | > 10000 nM | –
24 | Cc1c(-c2cccc3ccccc23)c2c(N)ncnc2n1C(C)(C)C (single isomer, unassigned) [(Sa)-10] | 9560 nM | > 10000 nM | –
25 | Cc1c(-c2cncc3ccccc23)c2c(N)ncnc2n1C(C)(C)C (single isomer, unassigned) [(Sa)-12] | 17 nM | 316 nM | –
26 | COc1ccc(Cl)c(-c2c(Cl)n(C3CCCC3)c3ncnc(N)c23)c1 [Compound 1e, 6-chloro-5-(2-chloro-5-methoxyphenyl)-7-cyclopentyl-7H-pyrrolo[2,3-d]pyrimidin-4-amine] | – | – | Barrier to Rotation [2]: 27.2 kcal/mol; kobs [2]: 1.24E−04
27 | COc1ccc(Br)c(-c2c(Cl)n(C3CCCC3)c3ncnc(N)c23)c1 [Compound 1f, 5-(2-bromo-5-methoxyphenyl)-6-chloro-7-cyclopentyl-7H-pyrrolo[2,3-d]pyrimidin-4-amine] | – | – | Barrier to Rotation [2]: 29.0 kcal/mol; kobs [2]: 1.01E−05
28 | COc1ccc(Cl)c(-c2c(Cl)n(C(C)(C)C)c3ncnc(N)c23)c1 [Compound 2e, 7-(tert-butyl)-6-chloro-5-(2-chloro-5-methoxyphenyl)-7H-pyrrolo[2,3-d]pyrimidin-4-amine] | – | – | Barrier to Rotation [2]: 28.6 kcal/mol; kobs [2]: 3.27E−05
29 | COc1ccc(Br)c(-c2c(Cl)n(C(C)(C)C)c3ncnc(N)c23)c1 [Compound 2f, 5-(2-bromo-5-methoxyphenyl)-7-(tert-butyl)-6-chloro-7H-pyrrolo[2,3-d]pyrimidin-4-amine] | – | – | Barrier to Rotation [2]: 30.4 kcal/mol; kobs [2]: 2.68E−05
30 | COc1cccc(-c2cn(C(C)(C)C)c3ncnc(N)c23)c1 [Compound 5, reference compound] | – | – | S(40%): number of kinases inhibited greater than 40% divided by number of kinases tested (including Src) ([1]; 200 nM): 0.44; activity for the tyrosine kinase panel tested ([1]; 200 nM and 1000 nM): near pan activity; S(40%): number of kinases inhibited greater than 40% divided by number of kinases tested (including Src) ([1]; 1000 nM): 0.72; IC50 of compound Kinase/IC50 of compound Yes (Abl): 2.65; IC50 of compound Kinase/IC50 of compound Yes (Ret kinase): 1.4; relative selectivities favoring Yes (IC50 kinase/IC50 YES) over Ret, Src, and Abl (Yes): 1.4-2.65 fold; IC50 of compound Kinase/IC50 of compound Yes (Yes): 1; IC50 of compound Kinase/IC50 of compound Yes (Src kinase): 1.64; IC50 of compound Kinase/IC50 of compound Yes (EGFR): 7 and 6.96
